# From patent US9346795B2, “Substituted sulfonamides useful as antiapoptotic Bcl inhibitors” (Bristol-Myers Squibb Company, priority 2011, dated 2016)
# pIC50: −log10 of the molar value.
# Columns and labels:
# Bcl-xL = Bcl-xL (Homo sapiens (Human), UniProt Q07817); assay: Bcl-xL/Bim Fluorescence Resonance Energy Transfer Assay (FRET); format: binding
# Outline: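 Biotin-Bcl-xL was incubated with Bim and compound at eleven concentrations for 60 min at room temperature. Streptavidin-terbium detection was then added for 30 min in the dark, and FRET was read. IC50 values were obtained by non-linear regression.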
# Bcl-2 = Bcl-2 (Homo sapiens (Human), UniProt P10415); assay: Bcl-2/Bim Fluorescence Polarization Assay (FPA); format: binding
# Chain of Bcl-2 (P10415 whole entry): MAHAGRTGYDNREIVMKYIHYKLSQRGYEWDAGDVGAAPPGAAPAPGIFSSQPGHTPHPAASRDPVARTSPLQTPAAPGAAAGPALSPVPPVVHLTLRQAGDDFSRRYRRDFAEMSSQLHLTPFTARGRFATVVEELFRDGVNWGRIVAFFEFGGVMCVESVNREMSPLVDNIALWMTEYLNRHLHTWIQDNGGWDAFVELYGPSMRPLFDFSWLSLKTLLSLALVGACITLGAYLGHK
# Chain of Bcl-xL (Q07817 whole entry): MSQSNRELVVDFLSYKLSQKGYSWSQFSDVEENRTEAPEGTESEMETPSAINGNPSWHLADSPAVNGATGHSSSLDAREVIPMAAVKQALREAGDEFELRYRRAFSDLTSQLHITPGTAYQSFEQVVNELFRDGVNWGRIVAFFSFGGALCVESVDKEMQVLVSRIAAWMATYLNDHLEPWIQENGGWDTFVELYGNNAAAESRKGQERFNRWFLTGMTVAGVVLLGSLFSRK
Structure (SMILES),pIC50 (Bcl-xL),pIC50 (Bcl-2)
"CCCCN(Cc1ccc(Cl)c(Cl)c1)c1ncc(Cl)c(-c2ccc(C(=O)NS(=O)(=O)c3ccc4cccc(Cl)c4c3)cc2C(=O)N2CCc3ccccc3C2)n1 [Example 322, 4-(2-(Butyl (3,4-dichlorobenzyl)amino)-5-chloropyrimidin-4-yl)-N-(8-chloronaphthalen-2-ylsulfonyl)-3-(1,2,3,4-tetrahydroisoquinoline-2-carbonyl)benzamide]",6.80,8.00
"CCCCN(Cc1ccc(Cl)c(Cl)c1)C(=O)c1nn(-c2ccc(C(=O)NS(=O)(=O)c3ccc4ccc(I)cc4c3)cc2C(=O)N2CCc3ccccc3C2)c(C)c1Cl [Example 179, N-Butyl-4-chloro-N-(3,4-dichlorobenzyl)-1-(4-(7-iodonaphthalen-2-ylsulfonylcarbamoyl)-2-(1,2,3,4-tetrahydroisoquinoline-2-carbonyl)phenyl)-5-methyl-1H-pyrazole-3-carboxamide]",7.10,7.70
"CCCCN(CCCC)C(=O)c1nn(-c2ccc(C(=O)NS(=O)(=O)c3ccc4ccc(OCc5ccccc5)cc4c3)cc2C(=O)N2CCc3ccccc3C2)c(C)c1Cl [Example 18, 1-(4-(7-(benzyloxy)naphthalen-2-ylsulfonylcarbamoyl)-2-(1,2,3,4-tetrahydroisoquinoline-2-carbonyl)phenyl)-N,N-dibutyl-4-chloro-5-methyl-1H-pyrazole-3-carboxamide]",7.52,8.00
"CCCCN(C(=O)c1nn(-c2ccc(C(=O)NS(=O)(=O)c3ccc4ccccc4c3)cc2C(=O)N2CCc3ccccc3C2)c(C)c1Cl)c1ccc(C(=O)OC)cc1 [Example 154, methyl 4-(N-butyl-4-chloro-5-methyl-1-(4-(naphthalen-2-ylsulfonylcarbamoyl)-2-(1,2,3,4-tetrahydroisoquinoline-2-carbonyl)phenyl)-1H-pyrazole-3-carboxamido)benzoate]",7.10,7.05
"CCCCN(C(=O)c1nn(-c2ccc(C(=O)NS(=O)(=O)c3ccc4ccccc4c3)cc2C(=O)N2CCc3ccccc3C2)c(C)c1Cl)c1cccc(-c2cccc(Cl)c2)c1 [Example 152, N-butyl-4-chloro-N-(3′-chlorobiphenyl-3-yl)-5-methyl-1-(4-(naphthalen-2-ylsulfonylcarbamoyl)-2-(1,2,3,4-tetrahydroisoquinoline-2-carbonyl)phenyl)-1H-pyrazole-3-carboxamide]",6.80,7.30
"CCCN(CCC)c1ncc(Cl)c(-c2ccc(C(=O)NS(=O)(=O)c3ccc4cccc(Cl)c4c3)cc2C(=O)N2Cc3ccccc3C[C@H]2CO)n1 [Example 328, 4-(5-Chloro-2-(dipropylamino)pyrimidin-4-yl)-N-(8-chloronaphthalen-2-ylsulfonyl)-3-((S)-3-(hydroxymethyl)-1,2,3,4-tetrahydroisoquinoline-2-carbonyl)benzamide]",8.00,8.06
"CCCCN(CCCC)c1ncc(Cl)c(-c2ccc(C(=O)NS(=O)(=O)c3ccc4ccccc4c3)cc2C(=O)N2Cc3ccccc3C[C@H]2CO)n1 [Example 315, 4-(5-Chloro-2-(dibutylamino)pyrimidin-4-yl)-3-((S)-3-(hydroxymethyl)-1,2,3,4-tetrahydroisoquinoline-2-carbonyl)-N-(naphthalen-2-ylsulfonyl)benzamide]",7.10,7.22
"CCCCN(CCCC)C(=O)c1nn(-c2ccc(C(=O)NS(=O)(=O)c3ccc4c(ccn4Cc4ccc(Cl)c(Cl)c4)c3)cc2C(=O)N2Cc3ccccc3C[C@H]2CO)c(C)c1Cl [Example 198, N,N-dibutyl-4-chloro-1-(4-(1-(3,4-dichlorobenzyl)-1H-indol-5-ylsulfonylcarbamoyl)-2-((S)-3-(hydroxymethyl)-1,2,3,4-tetrahydroisoquinoline-2-carbonyl)phenyl)-5-methyl-1H-pyrazole-3-carboxamide]",7.30,8.05
"CCCCc1c(-c2ccc(C(=O)NS(=O)(=O)c3ccc4ccccc4c3)cc2C(=O)N2CCc3ccccc3C2)c(CO)nn1-c1ccc(CCO)cc1 [Example 245, 4-(5-butyl-1-(4-(2-hydroxyethyl)phenyl)-3-(hydroxymethyl)-1H-pyrazol-4-yl)-N-(naphthalen-2-ylsulfonyl)-3-(1,2,3,4-tetrahydroisoquinoline-2-carbonyl)benzamide]",8.21,7.70
"CCCCc1c(-c2ccc(C(=O)NS(=O)(=O)c3ccc4ccccc4c3)cc2C(=O)N2CCc3ccccc3C2)c(CO)nn1-c1ccc(Oc2cccc(Cl)c2)cc1 [Example 243, 4-(5-butyl-1-(4-(3-chlorophenoxy)phenyl)-3-(hydroxymethyl)-1H-pyrazol-4-yl)-N-(naphthalen-2-ylsulfonyl)-3-(1,2,3,4-tetrahydroisoquinoline-2-carbonyl)benzamide]",7.70,8.11
"CCCCN(CCCC)C(=O)c1nn(-c2ccc(C(=O)NS(=O)(=O)c3ccc4ccc(OCCCN5CCN(C)CC5)cc4c3)cc2C(=O)N2CCc3ccccc3C2)c(C)c1Cl [Example 35, N,N-dibutyl-4-chloro-5-methyl-1-(4-(7-(3-(4-methylpiperazin-1-yl)propoxy)naphthalen-2-ylsulfonylcarbamoyl)-2-(1,2,3,4-tetrahydroisoquinoline-2-carbonyl)phenyl)-1H-pyrazole-3-carboxamide]",7.40,6.29
"CCCCN(CCCC)C(=O)c1cc(C)n(-c2ccc(C(=O)NS(=O)(=O)c3ccc4ccccc4c3)cc2C(=O)N2CCc3ccccc3C2)n1 [Example 164, N,N-Dibutyl-5-methyl-1-(4-(naphthalen-2-ylsulfonylcarbamoyl)-2-(1,2,3,4-tetrahydroisoquinoline-2-carbonyl)phenyl)-1H-pyrazole-3-carboxamide]",7.52,6.64

# Further lines, results first:
pIC50 (Bcl-xL),pIC50 (Bcl-2),Structure (SMILES)
7.15,7.52,"CCCCN(CCCC)C(=O)c1nn(-c2ccc(C(=O)NS(=O)(=O)c3ccc4cccc(Cl)c4c3)cc2C(=O)N2CCc3ccccc3C2)c(C)c1Cl [Example 5, N,N-dibutyl-4-chloro-1-(4-(8-chloronaphthalen-2-ylsulfonylcarbamoyl)-2-(1,2,3,4-tetrahydroisoquinoline-2-carbonyl)phenyl)-5-methyl-1H-pyrazole-3-carboxamide]"
7.70,7.30,"CCCCN(CCCC)C(=O)c1nn(-c2ccc(C(=O)NS(=O)(=O)c3ccc4ccc(OC(C)C)cc4c3)cc2C(=O)N2CCc3ccccc3C2)c(C)c1Cl [Example 24, N,N-dibutyl-4-chloro-1-(4-(7-isopropoxynaphthalen-2-ylsulfonylcarbamoyl)-2-(1,2,3,4-tetrahydroisoquinoline-2-carbonyl)phenyl)-5-methyl-1H-pyrazole-3-carboxamide]"
8.00,6.31,"CCCCN(CCCC)C(=O)c1nn(-c2ccc(C(=O)NS(=O)(=O)c3ccc4ccc(OC(C)CN(C)C)cc4c3)cc2C(=O)N2CCc3ccccc3C2)c(C)c1Cl (stereo not drawn) [Example 37, N,N-dibutyl-4-chloro-1-(4-(7-(1-(dimethylamino)propan-2-yloxy)naphthalen-2-ylsulfonylcarbamoyl)-2-(1,2,3,4-tetrahydroisoquinoline-2-carbonyl)phenyl)-5-methyl-1H-pyrazole-3-carboxamide]"
7.05,7.05,"CCCCN(CCCC)C(=O)c1nn(-c2ccc(C(=O)NS(=O)(=O)c3ccc4ccc(Cl)cc4c3)cc2C(=O)N2CCc3ccccc3C2)c(C)c1Cl [Example 10, N,N-dibutyl-4-chloro-1-(4-(7-chloronaphthalen-2-ylsulfonylcarbamoyl)-2-(1,2,3,4-tetrahydroisoquinoline-2-carbonyl)phenyl)-5-methyl-1H-pyrazole-3-carboxamide]"
7.70,8.41,"CCCCN(CCCC)C(=O)c1nn(-c2ccc(C(=O)NS(=O)(=O)c3ccc4c(Cl)ccc(Br)c4c3)cc2C(=O)N2CCc3ccccc3C2)c(C)c1Cl [Example 43, 1-(4-(8-bromo-5-chloronaphthalen-2-ylsulfonylcarbamoyl)-2-(1,2,3,4-tetrahydroisoquinoline-2-carbonyl)phenyl)-N,N-dibutyl-4-chloro-5-methyl-1H-pyrazole-3-carboxamide]"
7.40,7.70,"CCCCN(CCCC)C(=O)c1nn(-c2ccc(C(=O)NS(=O)(=O)c3ccc4c(c3)CCN4Cc3ccc(Cl)c(Cl)c3)cc2C(=O)N2CCc3ccccc3C2)c(C)c1Cl [Example 59, N,N-dibutyl-4-chloro-1-(4-(1-(3,4-dichlorobenzyl)indolin-5-ylsulfonylcarbamoyl)-2-(1,2,3,4-tetrahydroisoquinoline-2-carbonyl)phenyl)-5-methyl-1H-pyrazole-3-carboxamide]"
5.45,5.33,"CCCCN(CCCC)C(=O)c1nn(-c2ccc(C(=O)NS(=O)(=O)c3ccc4ccccc4c3)cc2C(=O)N2CCc3ccc(C(=O)O)cc3C2)c(C)c1Cl [Example 100, 2-(2-(4-Chloro-3-(dibutylcarbamoyl)-5-methyl-1H-pyrazol-1-yl)-5-(naphthalen-2-ylsulfonylcarbamoyl)benzoyl)-1,2,3,4-tetrahydroisoquinoline-7-carboxylic acid]"
6.96,7.30,"CCCCN(CCCC)C(=O)c1nn(-c2ccc(C(=O)NS(=O)(=O)c3ccc4c(ccn4Cc4ccc(Cl)c(Cl)c4)c3)cc2C(=O)N2CCc3ccccc3C2)c(C)c1Cl [Example 68, N,N-dibutyl-4-chloro-1-(4-(1-(3,4-dichlorobenzyl)-1H-indol-5-ylsulfonylcarbamoyl)-2-(1,2,3,4-tetrahydroisoquinoline-2-carbonyl)phenyl)-5-methyl-1H-pyrazole-3-carboxamide]"
8.00,7.22,"CCCCN(CCCC)C(=O)c1nn(-c2ccc(C(=O)NS(=O)(=O)c3ccc4c(c3)CCN4CC)cc2C(=O)N2CCc3ccccc3C2)c(C)c1Cl [Example 53, N,N-dibutyl-4-chloro-1-(4-(1-ethylindolin-5-ylsulfonylcarbamoyl)-2-(1,2,3,4-tetrahydroisoquinoline-2-carbonyl)phenyl)-5-methyl-1H-pyrazole-3-carboxamide]"
